Active and inactive are the calls of the source.
Experiments:
[1] = target: Adenosylmethionine-8-amino-7-oxononanoate aminotransferase (Mycobacterium tuberculosis, UniProt P9WQ81); assay: Mycobacterium tuberculosis BioA enzyme inhibitor Measured in Biochemical System Using Plate Reader - 2163-02_Inhibitor_Dose_CherryPick_Activity.; format: functional, Mycobacterium tuberculosis UT205
[2] = target: T1, Histone-lysine N-methyltransferase NSD2 (Homo sapiens, UniProt O96028); format: biochemical
T1 sequence (O96028 whole entry): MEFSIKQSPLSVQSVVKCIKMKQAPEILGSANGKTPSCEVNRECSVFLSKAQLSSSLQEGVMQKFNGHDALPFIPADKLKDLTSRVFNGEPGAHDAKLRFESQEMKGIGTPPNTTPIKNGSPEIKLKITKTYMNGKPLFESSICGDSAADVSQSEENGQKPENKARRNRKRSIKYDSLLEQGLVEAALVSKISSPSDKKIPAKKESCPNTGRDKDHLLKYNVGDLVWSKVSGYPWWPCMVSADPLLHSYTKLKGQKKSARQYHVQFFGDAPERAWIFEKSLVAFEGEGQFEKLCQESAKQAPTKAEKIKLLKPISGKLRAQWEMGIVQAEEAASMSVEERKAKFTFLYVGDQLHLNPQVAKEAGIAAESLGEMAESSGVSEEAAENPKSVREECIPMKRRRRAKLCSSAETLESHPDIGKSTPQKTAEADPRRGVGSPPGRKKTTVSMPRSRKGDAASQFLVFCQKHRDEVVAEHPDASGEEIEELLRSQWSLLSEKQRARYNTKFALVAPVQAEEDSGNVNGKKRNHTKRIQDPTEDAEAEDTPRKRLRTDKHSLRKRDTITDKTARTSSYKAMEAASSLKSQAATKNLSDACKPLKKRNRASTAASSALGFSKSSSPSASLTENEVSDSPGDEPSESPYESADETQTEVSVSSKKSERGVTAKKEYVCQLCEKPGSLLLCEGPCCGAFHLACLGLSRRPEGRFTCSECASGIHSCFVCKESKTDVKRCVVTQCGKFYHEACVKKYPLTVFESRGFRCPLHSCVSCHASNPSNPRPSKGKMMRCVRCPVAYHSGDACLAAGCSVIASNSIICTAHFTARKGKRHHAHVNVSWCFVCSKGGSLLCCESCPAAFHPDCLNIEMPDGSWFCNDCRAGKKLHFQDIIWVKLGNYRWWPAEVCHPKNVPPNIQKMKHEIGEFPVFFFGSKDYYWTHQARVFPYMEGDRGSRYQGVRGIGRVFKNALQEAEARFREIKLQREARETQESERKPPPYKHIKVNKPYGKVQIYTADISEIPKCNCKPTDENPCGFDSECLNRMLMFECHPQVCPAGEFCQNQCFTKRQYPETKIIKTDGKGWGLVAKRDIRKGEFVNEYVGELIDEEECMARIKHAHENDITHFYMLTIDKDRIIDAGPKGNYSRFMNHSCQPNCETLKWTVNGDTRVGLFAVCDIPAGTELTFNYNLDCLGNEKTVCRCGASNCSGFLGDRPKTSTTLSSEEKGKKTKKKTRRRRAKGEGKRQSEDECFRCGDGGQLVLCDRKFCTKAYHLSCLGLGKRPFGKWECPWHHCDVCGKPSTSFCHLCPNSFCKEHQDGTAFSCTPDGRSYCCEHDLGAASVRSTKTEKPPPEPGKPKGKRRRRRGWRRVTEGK

[3] = target: Ras and Rab interactor 1/Tyrosine-protein kinase ABL1 (Homo sapiens, UniProt P00519+Q13671); format: functional;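 note: biochemical TR-FRET dose-response test measuring inhibition of binding between Rin1 and Abl proteins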
Nonstructural protein 1 = Nonstructural protein 1 (Influenza A virus, UniProt Q194T2); format: functional, Influenza A virus (A/California/07/2009(H1N1))
[4] = target: T2, High affinity choline transporter 1 (Homo sapiens, UniProt Q9GZV3); assay: CHT inhibitors, dose response, cell-based, 10-point CRC, membrane potential dye (AID 588401); format: functional;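 note: membrane potential dye fluorescence of choline-evoked depolarization via CHT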
T2 sequence (Q9GZV3 whole entry): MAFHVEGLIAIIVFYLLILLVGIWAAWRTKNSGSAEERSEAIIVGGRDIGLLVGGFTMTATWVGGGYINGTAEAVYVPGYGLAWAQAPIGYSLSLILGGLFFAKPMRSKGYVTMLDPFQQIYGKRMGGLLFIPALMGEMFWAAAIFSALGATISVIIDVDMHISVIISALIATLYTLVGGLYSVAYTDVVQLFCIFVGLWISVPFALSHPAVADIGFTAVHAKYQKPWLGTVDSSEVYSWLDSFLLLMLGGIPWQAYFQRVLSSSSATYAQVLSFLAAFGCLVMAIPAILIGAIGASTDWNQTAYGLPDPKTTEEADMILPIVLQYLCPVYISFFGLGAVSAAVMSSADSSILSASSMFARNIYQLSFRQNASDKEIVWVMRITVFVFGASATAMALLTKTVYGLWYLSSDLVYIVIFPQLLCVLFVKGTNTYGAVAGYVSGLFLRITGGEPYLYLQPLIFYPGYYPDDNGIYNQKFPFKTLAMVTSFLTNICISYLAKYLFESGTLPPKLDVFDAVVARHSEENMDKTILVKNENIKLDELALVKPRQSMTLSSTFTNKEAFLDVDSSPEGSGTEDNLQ

[5] = target: T2, High affinity choline transporter 1; assay: CHT inhibitors, dose response, cell-based, 5-point CRC, membrane potential dye (AID 504840); format: functional
[6] = target: Tyrosine-protein phosphatase non-receptor type 5 (Homo sapiens, UniProt P54829); assay: STEP phosphatase inhibitors, confirmation, biochemical, fluorescence intensity, uHTS hits (AID 602372); format: functional; settings: read-out: IC50_Mean
[7] = target: Tyrosine-protein phosphatase non-receptor type 11 (Homo sapiens, UniProt Q06124); assay: SHP2 phosphatase inhibition, dose response, selectivity assay for STEP inhibitor project, biochemical (AID 602367); format: functional; settings: read-out: IC50_Mean
[8] = target: Dual specificity protein phosphatase 3 (Homo sapiens, UniProt P51452); assay: VHR phosphatase inhibition, dose response, selectivity assay for STEP inhibitor project, biochemical (AID 602374); format: functional; settings: read-out: IC50_Mean
[9] = target: DNA repair and recombination protein RAD54-like (Homo sapiens, UniProt Q92698); assay: inhibitors of human RAD54 branch migration, confirmation, biochemical, fluorescence, cherry-picked samples, dose series (AID 651657); format: functional
[10] = target: T3, Apoptotic protease-activating factor 1 (Homo sapiens, UniProt O14727); format: functional
T3 sequence (O14727 whole entry): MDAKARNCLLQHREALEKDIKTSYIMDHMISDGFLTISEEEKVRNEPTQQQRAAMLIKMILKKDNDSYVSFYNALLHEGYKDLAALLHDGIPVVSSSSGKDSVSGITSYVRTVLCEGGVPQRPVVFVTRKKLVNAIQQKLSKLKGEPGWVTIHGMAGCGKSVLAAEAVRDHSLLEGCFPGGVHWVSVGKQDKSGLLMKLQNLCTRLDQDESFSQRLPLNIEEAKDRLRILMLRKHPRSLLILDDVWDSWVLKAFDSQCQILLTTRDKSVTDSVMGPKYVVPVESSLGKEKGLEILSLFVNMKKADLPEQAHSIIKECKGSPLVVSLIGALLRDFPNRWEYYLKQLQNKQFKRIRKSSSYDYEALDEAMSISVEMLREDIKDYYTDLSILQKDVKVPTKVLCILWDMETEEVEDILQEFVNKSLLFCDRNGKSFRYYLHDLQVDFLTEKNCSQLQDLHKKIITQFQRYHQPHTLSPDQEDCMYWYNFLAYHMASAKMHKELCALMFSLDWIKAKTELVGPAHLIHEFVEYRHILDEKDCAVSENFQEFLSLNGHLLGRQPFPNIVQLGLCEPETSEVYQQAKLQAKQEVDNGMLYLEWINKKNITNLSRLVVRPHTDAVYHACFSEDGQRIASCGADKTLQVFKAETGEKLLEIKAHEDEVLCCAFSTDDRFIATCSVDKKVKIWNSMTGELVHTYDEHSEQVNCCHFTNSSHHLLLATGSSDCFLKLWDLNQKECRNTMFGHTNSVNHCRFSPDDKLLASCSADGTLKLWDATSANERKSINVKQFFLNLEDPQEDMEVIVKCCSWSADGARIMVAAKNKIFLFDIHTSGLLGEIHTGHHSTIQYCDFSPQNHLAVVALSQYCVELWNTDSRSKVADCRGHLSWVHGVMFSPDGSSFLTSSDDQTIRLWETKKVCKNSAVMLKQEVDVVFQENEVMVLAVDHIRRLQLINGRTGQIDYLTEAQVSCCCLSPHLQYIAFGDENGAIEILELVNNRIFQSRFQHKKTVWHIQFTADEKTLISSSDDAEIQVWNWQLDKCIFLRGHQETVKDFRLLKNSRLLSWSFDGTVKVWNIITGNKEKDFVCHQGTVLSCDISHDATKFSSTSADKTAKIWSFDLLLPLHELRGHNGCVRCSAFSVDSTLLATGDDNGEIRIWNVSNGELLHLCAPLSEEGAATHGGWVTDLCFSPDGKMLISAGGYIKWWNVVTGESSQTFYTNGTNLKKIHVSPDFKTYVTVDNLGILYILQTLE

[11] = target: T4, Replicative DNA helicase DnaB (Mycobacterium tuberculosis, UniProt P9WMR3); assay: DnaB intein splicing inhibitors, dose response, biochemical, cell-free fluorescence (AID 449749); format: functional
T4 sequence (P9WMR3 whole entry): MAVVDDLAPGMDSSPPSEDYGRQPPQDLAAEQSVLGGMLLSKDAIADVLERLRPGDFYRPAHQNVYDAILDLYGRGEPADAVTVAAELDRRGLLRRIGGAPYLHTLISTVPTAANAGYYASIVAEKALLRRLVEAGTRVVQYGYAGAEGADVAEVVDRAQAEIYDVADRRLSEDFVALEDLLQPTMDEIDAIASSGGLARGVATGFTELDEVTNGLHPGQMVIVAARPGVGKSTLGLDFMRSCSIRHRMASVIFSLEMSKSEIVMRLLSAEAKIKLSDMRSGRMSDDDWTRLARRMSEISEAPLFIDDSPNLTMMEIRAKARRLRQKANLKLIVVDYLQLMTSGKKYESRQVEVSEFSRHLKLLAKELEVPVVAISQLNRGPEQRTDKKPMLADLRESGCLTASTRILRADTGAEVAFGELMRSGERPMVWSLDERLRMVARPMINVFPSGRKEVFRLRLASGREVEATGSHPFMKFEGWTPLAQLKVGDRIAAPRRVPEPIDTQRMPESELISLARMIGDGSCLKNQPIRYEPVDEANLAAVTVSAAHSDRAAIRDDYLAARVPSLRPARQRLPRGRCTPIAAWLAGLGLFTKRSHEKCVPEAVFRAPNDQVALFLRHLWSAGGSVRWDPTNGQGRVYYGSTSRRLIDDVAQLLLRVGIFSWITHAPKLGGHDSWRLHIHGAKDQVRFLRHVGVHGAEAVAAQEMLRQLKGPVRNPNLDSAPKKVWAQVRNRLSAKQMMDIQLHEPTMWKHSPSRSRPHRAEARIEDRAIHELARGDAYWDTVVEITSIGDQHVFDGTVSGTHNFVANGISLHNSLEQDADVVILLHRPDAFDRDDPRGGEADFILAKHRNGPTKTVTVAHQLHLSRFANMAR

Protein RecA = target: T5, Protein RecA (Mycobacterium tuberculosis, UniProt P9WHJ3); assay: Fluorescence Cell-Free Homogeneous Dose Retest to Identify Inhibitors of RecA-Intein Splicing Activity. [Related pubchem assays (depositor defined):AID2097, AID2223, AID489010, AID492950]; format: functional
T5 sequence (P9WHJ3 whole entry): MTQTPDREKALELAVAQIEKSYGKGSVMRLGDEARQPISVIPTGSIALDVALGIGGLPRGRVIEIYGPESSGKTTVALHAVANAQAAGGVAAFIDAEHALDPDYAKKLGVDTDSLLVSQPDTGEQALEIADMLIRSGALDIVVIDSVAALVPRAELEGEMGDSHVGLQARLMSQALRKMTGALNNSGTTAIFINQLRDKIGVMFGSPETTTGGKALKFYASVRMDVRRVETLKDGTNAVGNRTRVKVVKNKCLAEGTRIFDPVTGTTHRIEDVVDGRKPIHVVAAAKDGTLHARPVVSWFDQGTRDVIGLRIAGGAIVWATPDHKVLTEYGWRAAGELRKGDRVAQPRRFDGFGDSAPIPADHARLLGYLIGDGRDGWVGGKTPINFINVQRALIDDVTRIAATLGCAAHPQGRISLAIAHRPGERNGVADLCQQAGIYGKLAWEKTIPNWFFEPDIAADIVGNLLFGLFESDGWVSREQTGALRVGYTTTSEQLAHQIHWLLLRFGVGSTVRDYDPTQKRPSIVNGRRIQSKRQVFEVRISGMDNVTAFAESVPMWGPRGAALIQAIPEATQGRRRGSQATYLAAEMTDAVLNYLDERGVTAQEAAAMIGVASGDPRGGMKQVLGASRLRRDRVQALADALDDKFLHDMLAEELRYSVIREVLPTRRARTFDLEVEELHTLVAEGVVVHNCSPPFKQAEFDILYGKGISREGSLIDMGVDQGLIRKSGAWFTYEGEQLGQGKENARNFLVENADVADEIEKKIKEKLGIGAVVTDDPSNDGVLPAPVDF

Adenosylmethionine-8-amino-7-oxononanoate aminotransferase, sequence (P9WQ81 whole entry): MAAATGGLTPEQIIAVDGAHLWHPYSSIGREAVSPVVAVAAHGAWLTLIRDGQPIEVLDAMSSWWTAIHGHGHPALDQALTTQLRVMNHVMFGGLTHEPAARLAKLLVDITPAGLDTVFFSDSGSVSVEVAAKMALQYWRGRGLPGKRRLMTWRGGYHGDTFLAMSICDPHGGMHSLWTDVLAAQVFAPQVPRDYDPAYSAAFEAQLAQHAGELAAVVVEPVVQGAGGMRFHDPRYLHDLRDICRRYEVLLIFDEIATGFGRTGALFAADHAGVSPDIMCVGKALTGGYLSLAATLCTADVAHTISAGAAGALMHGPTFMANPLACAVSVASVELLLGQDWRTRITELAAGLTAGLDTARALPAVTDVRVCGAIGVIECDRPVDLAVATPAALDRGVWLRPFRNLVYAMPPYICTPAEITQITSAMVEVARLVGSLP
Nonstructural protein 1, sequence (Q194T2 whole entry): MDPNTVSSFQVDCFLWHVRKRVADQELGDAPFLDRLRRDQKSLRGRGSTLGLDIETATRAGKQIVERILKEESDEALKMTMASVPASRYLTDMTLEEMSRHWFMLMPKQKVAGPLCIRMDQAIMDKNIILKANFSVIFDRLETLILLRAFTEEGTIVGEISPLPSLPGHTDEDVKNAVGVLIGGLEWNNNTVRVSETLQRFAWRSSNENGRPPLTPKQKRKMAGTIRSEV
Dual specificity protein phosphatase 3, sequence (P51452 whole entry): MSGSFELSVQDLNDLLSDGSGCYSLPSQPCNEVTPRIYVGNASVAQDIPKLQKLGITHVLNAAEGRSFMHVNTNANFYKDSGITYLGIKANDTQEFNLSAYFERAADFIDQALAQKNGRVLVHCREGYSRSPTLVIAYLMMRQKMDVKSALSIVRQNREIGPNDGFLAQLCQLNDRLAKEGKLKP
Tyrosine-protein phosphatase non-receptor type 5, sequence (P54829 whole entry): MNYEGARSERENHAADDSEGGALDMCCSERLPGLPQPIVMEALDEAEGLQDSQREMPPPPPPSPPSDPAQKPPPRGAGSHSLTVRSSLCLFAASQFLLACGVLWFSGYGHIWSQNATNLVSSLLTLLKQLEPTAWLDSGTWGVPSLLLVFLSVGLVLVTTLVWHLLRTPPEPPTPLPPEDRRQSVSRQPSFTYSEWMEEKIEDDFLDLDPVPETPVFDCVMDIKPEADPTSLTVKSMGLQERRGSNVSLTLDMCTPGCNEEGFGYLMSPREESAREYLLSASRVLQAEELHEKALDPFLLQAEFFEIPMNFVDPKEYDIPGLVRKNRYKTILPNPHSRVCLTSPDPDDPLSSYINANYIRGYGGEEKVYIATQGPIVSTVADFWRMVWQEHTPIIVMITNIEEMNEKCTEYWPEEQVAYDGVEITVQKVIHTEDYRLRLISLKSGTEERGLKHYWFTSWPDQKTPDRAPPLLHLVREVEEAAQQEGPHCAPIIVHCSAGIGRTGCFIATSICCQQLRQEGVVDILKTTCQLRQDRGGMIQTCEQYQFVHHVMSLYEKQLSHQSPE
DNA repair and recombination protein RAD54-like, sequence (Q92698 whole entry): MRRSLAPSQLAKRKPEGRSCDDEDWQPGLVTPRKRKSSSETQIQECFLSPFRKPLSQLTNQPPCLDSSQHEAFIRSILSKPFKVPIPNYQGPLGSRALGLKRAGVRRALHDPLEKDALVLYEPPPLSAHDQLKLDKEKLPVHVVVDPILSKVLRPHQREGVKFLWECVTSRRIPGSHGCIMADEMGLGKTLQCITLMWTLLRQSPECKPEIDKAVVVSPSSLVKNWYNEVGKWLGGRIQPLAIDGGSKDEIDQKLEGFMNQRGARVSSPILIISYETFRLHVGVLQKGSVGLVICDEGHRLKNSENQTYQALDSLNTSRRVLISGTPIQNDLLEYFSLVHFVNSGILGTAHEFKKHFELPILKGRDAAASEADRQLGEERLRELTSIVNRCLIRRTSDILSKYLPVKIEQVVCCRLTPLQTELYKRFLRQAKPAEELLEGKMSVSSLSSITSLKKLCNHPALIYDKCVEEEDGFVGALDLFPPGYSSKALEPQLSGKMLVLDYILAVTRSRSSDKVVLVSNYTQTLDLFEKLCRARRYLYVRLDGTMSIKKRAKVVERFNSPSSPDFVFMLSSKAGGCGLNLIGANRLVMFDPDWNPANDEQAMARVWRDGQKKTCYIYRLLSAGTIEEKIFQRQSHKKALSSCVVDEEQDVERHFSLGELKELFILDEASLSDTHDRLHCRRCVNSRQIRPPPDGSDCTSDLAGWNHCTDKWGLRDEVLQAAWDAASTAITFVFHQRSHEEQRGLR
Ras and Rab interactor 1/Tyrosine-protein kinase ABL1, sequence (P00519 whole entry): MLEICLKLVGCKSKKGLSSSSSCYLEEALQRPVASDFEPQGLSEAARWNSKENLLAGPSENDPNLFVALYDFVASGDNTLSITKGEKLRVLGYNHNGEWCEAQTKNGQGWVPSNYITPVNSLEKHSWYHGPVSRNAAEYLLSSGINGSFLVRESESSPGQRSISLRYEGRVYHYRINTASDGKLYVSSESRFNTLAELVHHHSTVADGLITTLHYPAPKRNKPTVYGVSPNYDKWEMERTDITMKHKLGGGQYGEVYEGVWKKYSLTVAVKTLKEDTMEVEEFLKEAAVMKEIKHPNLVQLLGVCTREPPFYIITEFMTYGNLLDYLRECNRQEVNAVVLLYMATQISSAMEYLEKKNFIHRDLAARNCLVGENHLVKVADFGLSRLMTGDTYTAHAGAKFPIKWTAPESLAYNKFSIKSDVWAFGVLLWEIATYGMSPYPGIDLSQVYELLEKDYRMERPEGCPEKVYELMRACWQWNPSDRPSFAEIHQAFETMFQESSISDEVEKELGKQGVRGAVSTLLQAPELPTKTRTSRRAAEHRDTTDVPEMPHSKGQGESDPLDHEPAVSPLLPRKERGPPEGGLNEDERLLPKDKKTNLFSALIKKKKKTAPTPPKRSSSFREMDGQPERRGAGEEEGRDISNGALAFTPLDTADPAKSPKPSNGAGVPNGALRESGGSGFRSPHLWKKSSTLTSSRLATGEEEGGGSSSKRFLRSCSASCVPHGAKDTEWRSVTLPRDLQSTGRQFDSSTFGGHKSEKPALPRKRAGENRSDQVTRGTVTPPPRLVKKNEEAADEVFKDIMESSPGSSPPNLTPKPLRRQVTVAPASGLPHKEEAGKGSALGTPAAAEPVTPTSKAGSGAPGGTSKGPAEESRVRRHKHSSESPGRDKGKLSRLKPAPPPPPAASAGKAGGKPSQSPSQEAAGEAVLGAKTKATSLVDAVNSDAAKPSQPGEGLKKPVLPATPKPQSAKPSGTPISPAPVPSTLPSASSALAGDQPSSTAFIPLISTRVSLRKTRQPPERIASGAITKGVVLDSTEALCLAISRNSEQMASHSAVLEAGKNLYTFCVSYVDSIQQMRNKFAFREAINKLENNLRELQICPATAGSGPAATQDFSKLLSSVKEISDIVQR
Ras and Rab interactor 1/Tyrosine-protein kinase ABL1, sequence (Q13671 whole entry): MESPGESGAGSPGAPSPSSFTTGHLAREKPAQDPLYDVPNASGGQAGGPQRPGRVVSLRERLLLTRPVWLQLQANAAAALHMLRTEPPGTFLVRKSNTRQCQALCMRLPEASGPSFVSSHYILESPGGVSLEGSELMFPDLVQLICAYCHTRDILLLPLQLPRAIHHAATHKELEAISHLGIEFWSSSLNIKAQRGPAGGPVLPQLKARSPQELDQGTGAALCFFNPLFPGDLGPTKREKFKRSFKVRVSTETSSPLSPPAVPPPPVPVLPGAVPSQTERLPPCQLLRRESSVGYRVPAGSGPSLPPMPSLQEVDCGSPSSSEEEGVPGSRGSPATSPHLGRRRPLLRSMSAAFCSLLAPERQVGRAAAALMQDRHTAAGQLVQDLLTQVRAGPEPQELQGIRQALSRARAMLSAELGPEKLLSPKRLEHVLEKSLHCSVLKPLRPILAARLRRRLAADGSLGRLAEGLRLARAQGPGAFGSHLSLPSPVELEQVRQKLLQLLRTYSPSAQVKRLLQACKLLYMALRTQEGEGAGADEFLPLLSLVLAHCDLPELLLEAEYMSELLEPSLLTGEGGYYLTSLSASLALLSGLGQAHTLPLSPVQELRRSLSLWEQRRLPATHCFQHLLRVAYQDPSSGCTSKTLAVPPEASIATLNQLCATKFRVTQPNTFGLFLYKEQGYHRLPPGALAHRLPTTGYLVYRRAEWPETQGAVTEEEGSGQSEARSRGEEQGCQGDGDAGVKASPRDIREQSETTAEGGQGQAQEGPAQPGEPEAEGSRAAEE
Tyrosine-protein phosphatase non-receptor type 11, sequence (Q06124 whole entry): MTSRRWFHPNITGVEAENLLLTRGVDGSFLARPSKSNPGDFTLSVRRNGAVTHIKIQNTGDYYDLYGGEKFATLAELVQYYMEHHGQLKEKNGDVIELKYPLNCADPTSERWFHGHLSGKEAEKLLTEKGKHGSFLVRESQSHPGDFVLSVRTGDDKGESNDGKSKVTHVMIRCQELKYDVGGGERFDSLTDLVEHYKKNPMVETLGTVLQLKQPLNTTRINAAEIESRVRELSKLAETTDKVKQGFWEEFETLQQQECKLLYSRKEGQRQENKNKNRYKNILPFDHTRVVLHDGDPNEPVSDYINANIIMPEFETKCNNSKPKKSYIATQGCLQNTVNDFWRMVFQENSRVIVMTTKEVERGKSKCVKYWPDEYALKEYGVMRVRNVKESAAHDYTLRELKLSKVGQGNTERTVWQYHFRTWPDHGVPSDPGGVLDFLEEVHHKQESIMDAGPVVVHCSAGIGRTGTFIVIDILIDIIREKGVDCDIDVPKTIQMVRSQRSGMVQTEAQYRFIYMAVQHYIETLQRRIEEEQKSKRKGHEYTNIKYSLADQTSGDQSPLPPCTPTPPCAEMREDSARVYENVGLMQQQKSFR

Structure (SMILES): CCOC(=O)c1ccc(N2C(=O)c3[nH]nc(C)c3C2c2ccc(OC)c(OC)c2)cc1 (stereo unspecified)
- AC50 [1]: 0.128 µM (active)

Structure (SMILES): Cc1ccc(NC(=O)CCCCCC2NC(=O)NC2C)cc1 (stereo unspecified)
- AC50 [2]: 0.358 µM (active)
- IC50 [3]: 0.0145 µM (active)
- IC50 (Nonstructural protein 1): 1.06 µM (active)

Structure (SMILES): N#Cc1nc(Cc2cccc3ccccc23)oc1NCCCN1CCOCC1
- IC50 [4]: 1.58 µM (active)
- IC50 [5]: 3.8 µM (active)

Structure (SMILES): COc1ccc(NC(=O)c2cc(=O)c3ccccc3o2)cc1Cl
- IC50 [6]: > 80 µM (inactive)
- IC50 [7]: 2.82 µM (active)
- IC50 [8]: 4.6 µM (active)

Structure (SMILES): O=C(Nc1cccnc1)c1cc2nc(C3CC3)cc(C(F)(F)F)n2n1
- AC50 [1]: 0.144 µM (active)

Structure (SMILES): CNc1nc(SC)nc2ccsc12
- IC50 [4]: 1.5 µM (active)
- IC50 [5]: 0.743 µM (active)

Structure (SMILES): CCN1CCN(c2cc(C)c3cc(NC(S)=NCCN(C)C)ccc3n2)CC1
- AC50 [9]: 24.3 µM (active)

Structure (SMILES): COc1ccc(S(=O)(=O)/N=C2\C=C(NS(=O)(=O)c3ccccc3)C(=O)c3ccccc32)cc1
- IC50 [10]: 16.6 µM (active)
- AC50 [11]: 1.89 µM (active)
- EC50 (Protein RecA): 1.58 µM (active)

Reference: ChEMBL document CHEMBL1201862, “PubChem BioAssay data set” (2004)
